Source: patent US8778951B2, “Heteroaryl compounds and their uses” (Novartis AG, priority 2009, dated 2014)

molecular target: Cdk9/cyclinT1 (Homo sapiens (Human), UniProt P50750); assay: Cdk9/CyclinT1 IMAP Protocol (fluorescence polarization kinase assay); assay type: biochemical; conditions: Table 2; generated using one of the two Cdk9/cyclinT1 assays (IMAP or Alpha Screen), not specified which; unit inferred
Procedure: Cdk9/CyclinT1 IMAP Protocol
The biological activity of the compounds of the invention can be determined using the assay described below.
Cdk9/cyclinT1 is purchased from Millipore, cat #14-685. The final total protein concentration in the assay 4 nM. […] The final concentration of peptide substrate is 100 nM. The ATP substrate (Adenosine-5′-triphosphate) is purchased from Roche Diagnostics, cat#1140965. The final concentration of ATP substrate is 6 uM. IMAP (Immobilized Metal Assay for Phosphochemicals) Progressive Binding reagent is purchased from Molecular Devices, cat#R8139. Fluorescence polarization (FP) is used for detection. The 5TAMRA-cdk7tide peptide is phosphorylated by Cdk9/cyclinT1 kinase using the ATP substrate. The Phospho-5TAMRA-cdk7tide peptide substrate is bound to the IMAP Progressive Binding Reagent. The binding of the IMAP Progressive Binding Reagent changes the fluorescence polarization of the 5TAMRA-cdk7tide peptide which is measured at an excitation of 531 nm and FP emission of 595 nm. Assays are carried out in 100 mM Tris, pH=7.2, mM MgCl2, 0.05% NaN3, 0.01% Tween-20, 1 mM dithiothreitol and 2.5% dimethyl sulfoxide. IMAP Progressive Binding Reagent is diluted 1:800 in 100% 1× Solution A from Molecular Devices, cat#R7285.
General protocol is as follows: To 10 ul of cdk9/cyclinT1, 0.5 ul of test compound in dimethyl sulfoxide is added. 5TAMRA-cdk7tide and ATP are mixed. 10 ul of the 5TAMRA-cdk7tide/ATP mix is added to start the reaction. The reaction is allowed to proceed for 4.5 hrs. 60 uL of IMAP Progressive Binding Reagent is added. After >1 hr of incubation, plates are read on the Envision 2101 from Perkin-Elmer. The assay is run in a 384-well format using black Corning plates, cat#3573.

Sequence of Cdk9/cyclinT1 (P50750 whole entry): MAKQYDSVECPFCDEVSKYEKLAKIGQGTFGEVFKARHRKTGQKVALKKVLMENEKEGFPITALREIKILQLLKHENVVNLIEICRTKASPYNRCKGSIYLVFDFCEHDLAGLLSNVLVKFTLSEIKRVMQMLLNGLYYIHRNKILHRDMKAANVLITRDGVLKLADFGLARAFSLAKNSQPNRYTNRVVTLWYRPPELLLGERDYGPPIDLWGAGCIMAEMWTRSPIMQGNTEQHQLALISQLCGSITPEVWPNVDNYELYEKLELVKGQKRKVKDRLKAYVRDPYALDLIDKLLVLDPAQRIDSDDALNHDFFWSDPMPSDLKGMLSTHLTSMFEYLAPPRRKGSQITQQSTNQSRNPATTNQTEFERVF
Sequence of Cdk9/cyclinT1 (O60563 whole entry partner): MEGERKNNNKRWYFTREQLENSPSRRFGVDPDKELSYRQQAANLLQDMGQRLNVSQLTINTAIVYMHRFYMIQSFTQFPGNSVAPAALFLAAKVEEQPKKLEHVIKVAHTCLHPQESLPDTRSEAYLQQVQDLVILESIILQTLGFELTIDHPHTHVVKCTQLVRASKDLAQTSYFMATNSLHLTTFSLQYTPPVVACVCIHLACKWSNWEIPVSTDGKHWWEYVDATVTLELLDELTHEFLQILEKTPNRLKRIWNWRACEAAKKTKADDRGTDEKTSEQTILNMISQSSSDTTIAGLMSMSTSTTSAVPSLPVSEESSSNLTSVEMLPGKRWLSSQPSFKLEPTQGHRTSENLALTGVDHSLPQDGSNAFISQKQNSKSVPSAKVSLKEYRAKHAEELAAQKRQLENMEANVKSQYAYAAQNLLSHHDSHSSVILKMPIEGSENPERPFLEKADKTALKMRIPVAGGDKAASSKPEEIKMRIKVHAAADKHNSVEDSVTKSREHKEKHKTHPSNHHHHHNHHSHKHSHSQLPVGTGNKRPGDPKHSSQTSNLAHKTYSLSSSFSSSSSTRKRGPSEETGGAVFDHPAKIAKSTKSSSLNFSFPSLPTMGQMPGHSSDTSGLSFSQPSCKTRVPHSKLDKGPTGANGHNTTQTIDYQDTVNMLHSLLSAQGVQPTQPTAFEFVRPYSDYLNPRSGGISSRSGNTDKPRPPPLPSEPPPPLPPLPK

Compound	IC50
Clc1cnc(N[C@H]2CCCNC2)cc1-c1cccc(NCc2ccncc2)n1 [Compound 99]	679 nM
Fc1ccc(CNc2cccc(-c3cc(N[C@H]4CCCNC4)ncc3Cl)n2)cc1F [Compound 100]	309 nM
N[C@H]1CC[C@H](Nc2cc(-c3cncc(NCc4cccc(F)c4)n3)c(Cl)cn2)CC1 [Compound 101]	7.95 nM
CC(C)CN1CCC(Nc2cc(-c3cccc(NCc4cccc(F)c4)n3)c(Cl)cn2)CC1 [Compound 102]	121 nM
CN1CCC(Nc2cc(-c3cccc(NCc4cccc(F)c4)n3)c(Cl)cn2)CC1 [Compound 103]	134 nM
N[C@H]1CC[C@H](Nc2cc(-c3cccc(NC[C@H]4CCCO4)n3)c(Cl)cn2)CC1 [Compound 104]	141 nM
CN(CC1CCOCC1)c1cccc(-c2cc(N[C@H]3CC[C@H](N)CC3)ncc2Cl)n1 [Compound 108]	7.95 nM
Nc1ncc(CNc2cccc(-c3cc(N[C@H]4CC[C@H](N)CC4)ncc3Cl)n2)cn1 [Compound 109]	15.8 nM
CN1CCN(C[C@H]2CC[C@H](Nc3cc(-c4cccc(NCc5cccc(F)c5)n4)c(Cl)cn3)CC2)CC1 [Compound 111]	30.8 nM
Fc1cccc(CNc2cccc(-c3cc(N[C@H]4CC[C@H](CN5CCCC5)CC4)ncc3Cl)n2)c1 [Compound 112]	27.3 nM
CNC(=O)[C@H]1CC[C@H](Nc2cc(-c3cccc(NCc4cccc(F)c4)n3)c(Cl)cn2)CC1 [Compound 113]	50.2 nM
O[C@H]1CC[C@H](Nc2cc(-c3cccc(NCc4cccc(F)c4)n3)c(Cl)cn2)CC1 [Compound 114]	7.95 nM
Fc1cccc(CNc2cccc(-c3cc(N[C@H]4CC[C@H](N5CCCCC5)CC4)ncc3Cl)n2)c1 [Compound 115]	7.95 nM
Fc1cccc(CNc2cccc(-c3cc(N[C@H]4CC[C@H](N5CCOCC5)CC4)ncc3Cl)n2)c1 [Compound 116]	7.95 nM
NCCNc1cccc(-c2cc(N[C@H]3CC[C@H](O)CC3)ncc2Cl)n1 [Compound 117]	124 nM
NCCCNc1cccc(-c2cc(N[C@H]3CC[C@H](O)CC3)ncc2Cl)n1 [Compound 118]	139 nM

Compound	IC50
O[C@H]1CC[C@H](Nc2cc(-c3cccc(NCC4CCNCC4)n3)c(Cl)cn2)CC1 [Compound 119]	155 nM
O[C@H]1CC[C@H](Nc2cc(-c3cccc(NCc4cccnc4)n3)c(Cl)cn2)CC1 [Compound 120]	45.6 nM
O[C@H]1CC[C@H](Nc2cc(-c3cccc(NC[C@H]4CCCNC4)n3)c(Cl)cn2)CC1 [Compound 121]	10500 nM
O[C@H]1CC[C@H](Nc2cc(-c3cccc(NC[C@@H]4CCCNC4)n3)c(Cl)cn2)CC1 [Compound 123]	42.8 nM
CC(=O)NCCNc1cccc(-c2cc(N[C@H]3CC[C@H](O)CC3)ncc2Cl)n1 [Compound 124]	116 nM
O[C@H]1CC[C@H](Nc2cc(-c3cccc(NCC4CCOCC4)n3)c(Cl)cn2)CC1 [Compound 126]	33.3 nM
O[C@H]1CC[C@H](Nc2cc(-c3cccc(NCC4CCCOC4)n3)c(Cl)cn2)CC1 (stereo partly shown) [Compound 128]	33.4 nM
O[C@H]1CC[C@H](Nc2cc(-c3cccc(NC4CCOCC4)n3)c(Cl)cn2)CC1 [Compound 129]	390 nM
O[C@H]1CC[C@H](Nc2cc(-c3cccc(N4CCOCC4)n3)c(Cl)cn2)CC1 [Compound 131]	470 nM
O[C@H]1CC[C@H](Nc2cc(-c3cccc(NCC4CCCCC4)n3)c(Cl)cn2)CC1 [Compound 132]	14.4 nM
O[C@H]1CC[C@H](Nc2cc(-c3cccc(NCc4cc(F)cc(F)c4)n3)c(Cl)cn2)CC1 [Compound 133]	7.95 nM
O[C@H]1CC[C@H](Nc2cc(-c3cccc(NCc4ccc(F)cc4)n3)c(Cl)cn2)CC1 [Compound 134]	10.5 nM
O[C@H]1CC[C@H](Nc2cc(-c3cccc(NCC4COCCO4)n3)c(Cl)cn2)CC1 (stereo partly shown) [Compound 135]	142 nM
NC(=O)c1ccc(-c2cc(N[C@H]3CC[C@H](N)CC3)ncc2Cl)nc1NCc1cccc(F)c1 [Compound 138]	522 nM
N[C@H]1CC[C@@H](Nc2cc(-c3cccc(NCc4cccc(F)c4)n3)c(Cl)cn2)CC1 [Compound 139]	30.1 nM

The remaining lines, values ahead:

IC50	Compound
12.6 nM	Fc1cccc(CNc2cccc(-c3cc(NC4CCCC4)ncc3Cl)n2)c1 [Compound 140]
205 nM	Fc1cccc(CNc2cccc(-c3cc(NC4CCCCC4)ncc3Cl)n2)c1 [Compound 141]
25.6 nM	Fc1cccc(CNc2cccc(-c3cc(NC4CCOCC4)ncc3Cl)n2)c1 [Compound 142]
22.7 nM	Fc1cccc(CNc2cccc(-c3cc(NCC4CCOCC4)ncc3Cl)n2)c1 [Compound 143]
15.8 nM	NCCCNc1cc(-c2cccc(NCc3cccc(F)c3)n2)c(Cl)cn1 [Compound 144]
7.95 nM	OCCCNc1cc(-c2cccc(NCc3cccc(F)c3)n2)c(Cl)cn1 [Compound 146]
19.4 nM	COCCCNc1cc(-c2cccc(NCc3cccc(F)c3)n2)c(Cl)cn1 [Compound 147]
15600 nM	Fc1cccc(CNc2cccc(-c3cc(N[C@@H]4CCCOC4)ncc3Cl)n2)c1 [Compound 148]
516 nM	Fc1cccc(CNc2cccc(-c3cc(NC4CCC(F)(F)CC4)ncc3Cl)n2)c1 [Compound 149]
6510 nM	Fc1cccc(CNc2cccc(-c3cc(N[C@H]4CCCOC4)ncc3Cl)n2)c1 [Compound 150]
1550 nM	N[C@H]1CCCC[C@H]1Nc1cc(-c2cccc(NCc3cccc(F)c3)n2)c(Cl)cn1 [Compound 153]
23 nM	CCOC(=O)c1coc(N[C@H]2CC[C@H](Nc3cc(-c4cccc(NCc5cccc(F)c5)n4)c(Cl)cn3)CC2)n1 [Compound 155, Ethyl 2-(trans-4-(5′-chloro-6-(3-fluorobenzylamino)-2,4′-bipyridin-2′-yl-amino)cyclohexylamino)oxazole-4-carboxylate]
7.9 nM	COCCN[C@H]1CC[C@H](Nc2cc(-c3cccc(NCc4cccc(F)c4)n3)c(Cl)cn2)CC1 [Compound 157]
11 nM	CN1CCN([C@H]2CC[C@H](Nc3cc(-c4cccc(NCc5cccc(F)c5)n4)c(Cl)cn3)CC2)CC1 [Compound 158]
1380 nM	NCCNc1cc(-c2cccc(NCc3cccc(F)c3)n2)c(Cl)cn1 [Compound 159]
19 nM	OCCNc1cc(-c2cccc(NCc3cccc(F)c3)n2)c(Cl)cn1 [Compound 160]
26 nM	CN(C)CCCCNc1cc(-c2cccc(NCc3cccc(F)c3)n2)c(Cl)cn1 [Compound 161]
14 nM	Fc1cccc(CNc2cccc(-c3cc(NCC4CCNCC4)ncc3Cl)n2)c1 [Compound 162]

IC50	Compound
13 nM	CN1CCC(CNc2cc(-c3cccc(NCc4cccc(F)c4)n3)c(Cl)cn2)CC1 [Compound 163]
39 nM	Fc1cccc(CNc2cccc(-c3cc(NC[C@H]4CCCNC4)ncc3Cl)n2)c1 [Compound 164]
7.9 nM	Fc1cccc(CNc2cccc(-c3cc(NCC[C@H]4CCCNC4)ncc3Cl)n2)c1 [Compound 165]
27 nM	Fc1cccc(CNc2cccc(-c3cc(NC[C@@H]4CCCNC4)ncc3Cl)n2)c1 [Compound 166]
18 nM	Fc1cccc(CNc2cccc(-c3cc(NCC[C@@H]4CCCNC4)ncc3Cl)n2)c1 [Compound 167]
37 nM	Fc1cccc(CNc2cccc(-c3cc(NCCN4CCNCC4)ncc3Cl)n2)c1 [Compound 168]
9 nM	N[C@H]1CC[C@H](CNc2cc(-c3cccc(NCc4cccc(F)c4)n3)c(Cl)cn2)CC1 [Compound 169]
44 nM	CN1CCN(CCNc2cc(-c3cccc(NCc4cccc(F)c4)n3)c(Cl)cn2)CC1 [Compound 170]
218 nM	Fc1cccc(CNc2cccc(-c3cc(NCCN4CCOCC4)ncc3Cl)n2)c1 [Compound 171]
15 nM	CC(C)Nc1cc(-c2cccc(NCc3cccc(F)c3)n2)c(Cl)cn1 [Compound 172]
62 nM	CCCCNc1cc(-c2cccc(NCc3cccc(F)c3)n2)c(Cl)cn1 [Compound 173]
29 nM	Fc1cccc(CNc2cccc(-c3cc(NCCC4CCOCC4)ncc3Cl)n2)c1 [Compound 174]
24 nM	Fc1cccc(CNc2cccc(-c3cc(NCCc4cccnc4)ncc3Cl)n2)c1 [Compound 175]
103 nM	CNc1cc(-c2cccc(NCc3cccc(F)c3)n2)c(Cl)cn1 [Compound 178, 5′-chloro-N6-(3-fluorobenzyl)-N2′-methyl-2,4′-bipyridine-2′,6-diamine]
544 nM	Nc1cc(-c2cccc(NCc3cccc(F)c3)n2)c(Cl)cn1 [Compound 179]
12.1 nM	COc1cnc(N[C@H]2CC[C@H](N)CC2)cc1-c1cccc(NCc2cccc(F)c2)n1 [Compound 180, N2′-(trans-4-aminocyclohexyl)-N6-(3-fluorobenzyl)-5′-methoxy-2,4′-bipyridine-2′,6-diamine]
7.94 nM	OC[C@H]1CC[C@H](Nc2cc(-c3cccc(NCc4cccc(F)c4)n3)c(Cl)cn2)CC1 [Compound 181]
21.1 nM	O[C@H]1CC[C@@H](Nc2cc(-c3cccc(NCc4cccc(F)c4)n3)c(Cl)cn2)CC1 [Compound 182]
